Assay results reported in US4933332A, “11-desoxy-17-α-hydroxycorticosterone derivatives” (priority 1988, dated 1990).
“And” between values parts separate entries of the source, which are not always exact repeats. Equal values may be shown once.

Assays:
MOPG-406 = assay: Antitumor effect on grafted hemoblastoses (MOPC-406), extension of lifespan; format: in vivo, mice and rats; conditions: in vivo
Ca-755 = assay: Antitumor effect on grafted solid tumor Ca-755; format: in vivo, mice and rats; conditions: in vivo
Hepatoma G-22c = assay: Antitumor effect on grafted hepatoma G-22c; format: in vivo, mice and rats; conditions: in vivo
[1] = test system: Small intestine adenocarcinoma AKATON; assay: Duration of the antitumor effect, small intestine adenocarcinoma AKATON; format: in vivo, mice and rats
From the text: (§1) For the study of the antitumor activity of the compounds according to the present invention use was made of regrafted hemoblastoses, grafted solid tumors, induced and spontaneous tumors of mice and rats. The following models were used: L 1210, P-388, hemocytoblastosis La, MOPC-406, viral lympholeukosis Mazurenko LMC-1, Ca-755, mammary carcinoma metastasizing into lungs KML, alveolar mammary cancer RMK-1, small intenstine adenocarcinoma AKATON, large intestine adenocarcinoma AKATOL, Lewis lung carcinoma LL, lung adenocarcinoma RL-67, hepatomae G-22c, G-60, G-61, sarcomae S-37 and S-180, DMBA (dimethylbenzanthracene)-induced and spontaneous mammary tumors, and […] (dimethylhydrazine)-induced tumors of the large intestine.
The studies were carried out on line mice and their first-generation hybrids, as well as on mongrel mice and rats.
(§2) The compounds were administered to the animals hypodermally in kernel oil. For the purpose of comparison, a known hormonocytostatic estracyte (estra-1,3,5-(10)treine-3,17β-diol-3N-[bis-(2-chloroethyl)carbamate-17-sodium phosphate] was used which was administered hypodermally in a solution of a 0.9% NaCl, chlorphenacyl and chloroambucyl which were administered intraperitoneally in a 10% solution of ethanol, sarcolysine (β-[p-di(2-chloroethyl)aminophenyl]-α-alanine hydrochloride)--intraperitoneally in a 0.9% solution of NaCl, prednisolone (pregnadiene-1,4-triol-11β,17α,21-dione-3,20)--per os in a starch size.
(§3) Criteria of the antitumor activity of the compounds according to the present invention are: extension of the lifespan of the animals (ELA, %) and tumor growth inhibition (TGI, %). [formula] T--average lifespan of the treated animals; C--average lifespan of the control animals. [formula] O--average tumor volume in the group of treated animals; K--average tumor volume in the group of control animals.

[2] = test system: DMBA-induced mammary tumors of rats; assay: Effect on DMBA-induced breast tumors in repeated treatment courses; format: in vivo
From the text: as §1, §2, §3
In the case of using spontaneous or induced tumors, by means of carcinogenic substances, the criteria of the antitumor effect are: TGI, % or decrease in the tumor size, %, as compared to its initial value. The treatment of spontaneous and induced tumors was initiated after achieving, by these tumors, of a particular size excluding the possibility of a spontaneous regression.

[3] = molecular target: T1, cytoplasmatic receptors of glucocorticoids (Homo sapiens, UniProt P04150); assay: Interaction with cytoplasmatic receptors of glucocorticoids; format: binding
T1 construct: cytoplasmatic receptors of glucocorticoids
From the text: The hormonal effect of 11-desoxy-17α-hydroxy-21-[p-di-(2-chloroethyl)aminophenylacetate] corticosterone is associated with exhibition of a glucocorticoidal activity thereby.

[4] = test system: acceptor regions of chromatin of tumoral and normal cells (kidney tumor PA, normal kidney); assay: Penetration into the cell nucleus and interaction with chromatin; parameters: species or system line Wistar; conditions: kidney tumor PA of rats
mice = conditions: mouse, in vivo

T1 sequence (P04150 whole entry): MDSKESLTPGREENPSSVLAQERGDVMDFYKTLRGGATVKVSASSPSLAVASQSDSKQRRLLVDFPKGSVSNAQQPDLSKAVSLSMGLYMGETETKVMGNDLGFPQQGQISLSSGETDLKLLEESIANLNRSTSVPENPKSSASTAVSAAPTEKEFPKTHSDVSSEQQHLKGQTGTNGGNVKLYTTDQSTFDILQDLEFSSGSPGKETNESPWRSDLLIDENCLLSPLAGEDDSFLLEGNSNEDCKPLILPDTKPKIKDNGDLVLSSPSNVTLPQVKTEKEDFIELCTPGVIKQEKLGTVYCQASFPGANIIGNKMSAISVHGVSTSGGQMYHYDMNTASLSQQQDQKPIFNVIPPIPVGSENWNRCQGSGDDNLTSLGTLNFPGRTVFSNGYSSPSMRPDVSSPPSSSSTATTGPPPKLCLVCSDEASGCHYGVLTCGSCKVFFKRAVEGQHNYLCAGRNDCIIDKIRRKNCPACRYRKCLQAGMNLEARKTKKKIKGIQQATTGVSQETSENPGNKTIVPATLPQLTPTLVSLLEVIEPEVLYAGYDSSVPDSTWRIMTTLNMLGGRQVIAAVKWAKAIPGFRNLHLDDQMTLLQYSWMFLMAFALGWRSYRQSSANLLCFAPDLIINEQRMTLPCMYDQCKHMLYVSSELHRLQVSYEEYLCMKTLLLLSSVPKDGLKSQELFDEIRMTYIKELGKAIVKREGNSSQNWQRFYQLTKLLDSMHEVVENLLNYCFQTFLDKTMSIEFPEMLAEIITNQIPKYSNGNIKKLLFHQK

C[C@]12CCC(=O)C=C1CC[C@@H]1[C@@H]2CC[C@@]2(C)[C@H]1CC[C@]2(O)C(=O)COC(=O)Cc1ccc(N(CCCl)CCCl)cc1 [11-desoxy-17α-hydroxy-21-[p-di(2-chloroethyl)-aminophenylacetate] corticosterone]
Extension of the lifespan of the animals (ELA) (MOPG-406): 76% | Extension of the lifespan (Ca-755): 73% | Maximum tumor growth inhibition (Ca-755): 99% | Tumor growth inhibition (Ca-755): 92% and 73% and 82% | Maximum tumor growth inhibition (Ca-755; 45 mg/kg): 94% | Extension of the lifespan (Hepatoma G-22c): 65% | Maximum tumor growth inhibition (Hepatoma G-22c): 80% | Tumor growth inhibition (Hepatoma G-22c): 80% and 68% and 57% | Extension of the lifespan ([1]; 15 mg/kg/24 h × 5, days 2-6): 46% | Tumor growth inhibition ([1]; 15 mg/kg/24 h × 5, days 2-6, day 15 of experiment): 66% | Tumor growth inhibition ([1]; 15 mg/kg/24 h × 5, days 2-6, day 22 of experiment): 55% | Tumor growth inhibition ([1]; 15 mg/kg/24 h × 5, days 2-6, day 29 of experiment): 46% | Increased lifespan ([2]; DMBA-induced, rats, 15 mg/kg/24 h × 5, 2 courses, 5 weeks interval): 18% | Decrease or increase (+) of the tumor, % of the initial one ([2]; DMBA-induced, rats, 15 mg/kg/24 h × 5, 2 courses, 5 weeks interval, week 1): 33% | Decrease or increase (+) of the tumor, % of the initial one ([2]; DMBA-induced, rats, 15 mg/kg/24 h × 5, 2 courses, 5 weeks interval, week 2): 32% | Decrease or increase (+) of the tumor, % of the initial one ([2]; DMBA-induced, rats, 15 mg/kg/24 h × 5, 2 courses, 5 weeks interval, week 3): 11% | Decrease or increase (+) of the tumor, % of the initial one ([2]; DMBA-induced, rats, 15 mg/kg/24 h × 5, 2 courses, 5 weeks interval, week 4): 24% | Decrease or increase (+) of the tumor, % of the initial one ([2]; DMBA-induced, rats, 15 mg/kg/24 h × 5, 2 courses, 5 weeks interval, week 5): +26% | Decrease or increase (+) of the tumor, % of the initial one ([2]; DMBA-induced, rats, 15 mg/kg/24 h × 5, 2 courses, 5 weeks interval, week 6): 23% | Decrease or increase (+) of the tumor, % of the initial one ([2]; DMBA-induced, rats, 15 mg/kg/24 h × 5, 2 courses, 5 weeks interval, week 7): +3% | Decrease or increase (+) of the tumor, % of the initial one ([2]; DMBA-induced, rats, 15 mg/kg/24 h × 5, 2 courses, 5 weeks interval, week 8): 13% | reduction in size of induced tumors in breasts ([2]; compared to the size prior to the treatment): causes reduction in size of induced and spontaneous tumors | Kd [3]: 95 nM | interaction with cytoplasmatic receptors of glucocorticoids ([3]; [^3 H]-dexamethazone): interacts with cytoplasmatic receptors of glucocorticoids and inhibits combining of [^3 H]-dexamethazone therewith | penetration into cell nucleus and interaction with chromatin [4]: penetrates into the cell nucleus and interacts with acceptor regions of chromatin of both tumoral and normal cells | toxicity lower than that of chlorophenacyl (mice): 3 times
